Measurements as given in patent publication US5512549A, “Glucagon-like insulinotropic peptide analogs, compositions, and methods of use” (Eli Lilly and Company, priority 1994, dated 1996).

Assays:
[1] = system: beagles; assay: Dog S.C. Hyperglycemic (150 mg/dl) Clamp Test; format: in vivo; conditions: S.C. 10 μg/kg; for GIR Change AUC / Insulin Change AUC: 0-120 min; for GIR Change AUC / Insulin Change AUC / Max Insulin Change: mean ± SEM; for Max Insulin Change: 120 minute test period; for Duration of Insulin Effect: time average insulin change consistently >0.5 ng/ml
Method: a) Hyperglycemic Clamp Studies
Experiments were conducted in overnight-fasted, conscious, adult (1-2 years of age) male and female beagles weighing 8-15 kg. At least ten days prior to the study, animals were anesthetized with isoflurane, and a cut-down was made in the left or right inguinal region. Silastic catheters were inserted into the femoral artery and the proximal caudal femoral vein and secured with 4-0 silk suture. The free ends of the catheters were passed subcutaneously to the back using a trocar needle. The catheters were then filled with a glycerol/heparin solution (3:1, v/v; final heparin concentration of 250 KIU/ml), and the free ends were knotted and placed in a subcutaneous pocket to allow complete closure of the skin. Keflex® was administered both pre-operatively (20 mg/kg, IV and 20 mg/kg, I.M.) and post-operatively (250 mg, p.o. once daily for seven days) to prevent infections. Torbugesic (1.5 mg/kg, I.M.) was administered post-operativelyto control pain.
Blood was drawn just prior to the study day to determine the health of the animal. Only animals with hematocrits above 38% and leukocyte counts below 16,000/mm^3 were used.
The afternoon before the experiment, the free ends of the catheters were exteriorized from the subcutaneous pocket through a small incision made under local anesthesia (2% lidocaine), and the dog was fitted with a tether system jacket and collar assembly.
The morning of the experiment, the contents of the catheters were aspirated, the catheters were flushed with saline, and extension lines (protected by a stainless steel tether) were attached to the catheters. On mornings of IV injection experiments, an over-the-needle, teflon catheter was inserted percutaneously into a cephalic vein in preparation for the administration of an IV bolus of test substance. The dog was placed in a metabolic cage, and the catheter extension lines and tether were attached to a swivel system to allow the dog to move freely about the cage. At this time (-60 minutes), an exogenous infusion of glucose (50% w/v in water) was begun through the chronic venous catheter. Glucose was infused in a descending stepwise fashion over the first six minutes of the study to rapidly raise the plasma glucose concentration to 150 mg/dl. Plasma glucose concentrations were determined every 2.5 to 7.5 minutes throughout the remainder of the study, and the glucose infusion rate was adjusted appropriately to maintain the plasma glucose concentration at 150 mg/dl.
Sixty minutes after the start of the glucose infusion (time 0), test substance was administered either intravenously (1.0, 2.9, 5.0 or 10.0 μg/kg; dose dissolved in 2 ml of saline containing 0.3% dog albumin, w/v) through the previously inserted teflon catheter or subcutaneously (10 μg/kg; 150 μM in phosphate buffered saline) in the dorsal aspect of the neck.
Arterial blood samples (3.5 ml) were taken at -30, -15, 0, 2.5, 5, 7.5, 10, 12.5, 15, 20, 30, 45, 60, 75, 90, 105 and 120 minutes during the IV studies and at -30, -15, 0, 3, 6, 9, 12, 15, 20, 30, 45, 60, 75, 90, 105 and 120 minutes during the SC studies. Samples were collected in vacuum blood collection tubes containing disodium EDTA and immediately placed on ice. To prevent proteolytic cleavage of GLP-1(7-37) in the plasma samples, 1.5 ml of the EDTA containing blood were transferred to a polypropylene tube containing 40 μl of aprotinin (10,000 KIU/ml) and mixed well. The samples were centrifuged, and the resulting plasma was transferred to polypropylene test tubes and stored on ice for the duration of the study.
At the conclusion of the experiment, the animal was anesthetized (isoflurane); the catheters were flushed with fresh saline and filled with the glycerol/heparin mixture; the free ends of the catheters were knotted and placed subcutaneously as described earlier; and antibiotic was administered (300 mg Keflex®, I.M.). […]

[2] = system: Sprague Dawley or Zucker Diabetic Fatty rats; assay: Rat IV Glucose (1 g/kg) Tolerance Test; format: in vivo; conditions: for Insulin Change AUC: 0-15 min
Method: a) Glucose Tolerance Tests
Experiments were conducted in overnight-fasted, conscious, male Sprague Dawley (Charles River) or Zucker Diabetic Fatty (Genetic Models, Inc.) rats weighing approximately 250 (Sprague Dawley rats) or 300 (Zucker Diabetic Fatty rats) grams. Four to five days prior the study, rats were anesthetized with isoflurane, and a polyethylene (PE50) catheter was inserted into the right jugular vein. The catheter was secured with a wound clip, filled with saline containing heparin (2% sodium heparin), and closed with a small stainless steel plug.
After a sixteen-hour fast, twelve chronically cannulated rats were separated into four groups of three rats per group. 0.4 ml of blood was taken from the tail vein, collected into a microtainer tube containing lithium heparin, and immediately placed on ice (zero minute sample). A glucose bolus (1.0 g/kg; 50% glucose (w/v) in water) was administered via the indwelling jugular cannula, and the cannula was rinsed with 200 μl of saline. Twenty seconds later a bolus of test substance 100 μl/100 g body weight of either vehicle (saline containing 0.3% (w/v) bovine serum albumin) or vehicle containing analog! was administered through the jugular cannula, and the cannula was rinsed as before. Rats were bled from the tail again at 2, 5, 10, 20 and 30 minutes after the administration of the glucose bolus, and the samples were treated as described above. At the end of the experiment, blood samples were centrifuged, and the plasma was collected.
Plasma glucose concentrations were determined the day of the experiment using a coupled hexokinase procedure in a clinical chemistry analyzer. Plasma for insulin determinations were diluted with zero calibrator and frozen at -20° C. until time for analysis. Insulin concentrations were determined using a commercial radioimmunoassay kit with rat insulin as the standard.
Insulin change (the change in insulin from the baseline value) was calculated as the difference between the insulin concentration at time t and the insulin concentration at zero time. The area under the insulin change curve was calculated using the trapezoidal rule. Plasma glucose change (the increase in plasma glucose above the baseline value) was calculated as the difference between the plasma glucose concentration at time t and the plasma glucose concentration at zero time. The area under the plasma glucose change curve was calculated using the trapezoidal rule. Values are listed as the mean ± the standard error of the mean (SEM).

| Substance | GIR Change AUC [1] | Insulin Change AUC [1] | Max Insulin Change [1] | Duration of Insulin Effect [1] | Insulin Change at 10 min ([2]; IV dose 0.6 mg/kg) | Max Insulin Change ([2]; IV dose 0.6 mg/kg) | Insulin Change AUC ([2]; IV dose 0.6 mg/kg) | Insulin Change at 10 min ([2]; IV dose 1.2 mg/kg) | Max Insulin Change ([2]; IV dose 1.2 mg/kg) | Insulin Change AUC ([2]; IV dose 1.2 mg/kg) | Insulin Change at 10 min ([2]; IV dose 0.92 mg/kg) | Max Insulin Change ([2]; IV dose 0.92 mg/kg) | Insulin Change AUC ([2]; IV dose 0.92 mg/kg) |
| --- | --- | --- | --- | --- | --- | --- | --- | --- | --- | --- | --- | --- | --- |
| Lys^34 -N^ε -octanoyl-GLP-1(7-37)OH [Lys^34-N^ε-octanoyl-GLP-1(7-37)OH] | 532 ± 112 mg/kg | 29 ± 8 ng·min/mL | 0.6 ± 0.3 ng/mL | not active | 1.3 ng/mL | 5.0 ng/mL | 33 ± 8 ng·min/mL | 10.0 ng/mL | 13.1 ng/mL | 136 ± 30 ng·min/mL | – | – | – |
| GLP-1(7-37)OH | 696 ± 145 mg/kg | 64 ± 33 ng·min/mL | 1.6 ± 0.8 ng/mL | 27 min | 5.4 ng/mL | 7.8 ng/mL | 79 ± 8 ng·min/mL | 4.2 ng/mL | 8.4 ng/mL | 77 ± 17 ng·min/mL | 3.5 ng/mL | 8.4 ng/mL | 75 ± 12 ng·min/mL |
